The text below walks through data of patent US9962375B2, “Methyl-piperidine compounds useful for inhibiting microsomal prostaglandin E2 synthase-1” (Eli Lilly and Company, priority 2014, dated 2018).

Assay [1] concerns PGE2 formation in human whole blood. Put plainly: Human Whole Blood Assay (LPS induced PGE2). Format: cell-based. The following applies: 100 μg/mL LPS, 20-24 hours, LC/MS/MS, n=11, read-out: IC50 for inhibition of PGE2 formation in human whole blood. The method, then: Blood is collected from normal volunteer donors into sodium heparin VACUTAINER tubes. Donors are selected, in part, on their confirmation that they have not taken NSAIDs, aspirin, Celebrex®, or glucocorticoids within two weeks of the donation. All tubes/donor are pooled into 250 mL Corning conical centrifuge tubes and 436.5 μL/well is distributed into deep well polypropylene plates. Compounds are diluted in DMSO to 100× final and 4.5 μL/well in duplicate or triplicate is added to give 7 point curves. […] One hundred microliters is quantitatively transferred to Costar cluster tubes blocks and 400 μL/well of the MeOH stop reagent and internal standards, d4-PGE2, d4-PGF2α, and d4-TXA2β are added. […]
Solid phase extraction is performed using Waters HLB 30 mg/bed 96 well plates on a vacuum manifold: Step 1, the matrix is washed with MeOH (1 mL), followed by 0.1% formic acid in water (1 mL); Step 2, 400 μL sample is applied along with 0.1% formic acid in water (900 μL) and allowed to bind for 5 minutes; Step 3, the matrix is washed with 0.1% formic acid in water (600 μL), followed by 80/20 water/MeOH (600 μL); Step 4, the products are eluted with 2-500 μL volumes of EtOAc; Step 5 the samples are dried under nitrogen and reconstituted in 75/25 water/acetonitrile with 0.1% formic acid (50 μL). The products are analyzed by LC/MS/MS.

The target of the next assay is T1, Human mPGES-1 (Homo sapiens, UniProt O14684).
T1 construct: host or cells: 293E cells (transient expression; microsomes prepared from cell pellets)
T1 sequence (O14684 1-152): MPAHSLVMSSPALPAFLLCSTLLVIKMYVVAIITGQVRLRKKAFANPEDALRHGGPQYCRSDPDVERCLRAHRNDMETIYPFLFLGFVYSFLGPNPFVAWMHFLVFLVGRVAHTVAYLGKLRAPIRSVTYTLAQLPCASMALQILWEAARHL
The assay is described as follows: Human mPGES-1 Enzyme Inhibition Assay. The assay is classed as biochemical. Conditions: microsomes from 293E cells, 1.67 μM PGH2, PGE2 by LC/MS; ±0.00064, n=17. The method, then:
Human mPGES-1 Enzyme Inhibition Assay
Human mPGES-1 (Invitrogen™ (Cat#97002RG, clone ID 6374722)) is subcloned into pcDNA3.1 and transiently expressed in 293E cells. Microsomes are prepared from cell pellets based on published methods (Oullet et al., Purification and characterization of recombinant microsomal prostaglandin E synthase-1, Protein Expression and Purification, 26 pp 489-495 (2002); and Thoren et al., Human Microsomal Prostanglandin E Synthase-1, J. Biol Chem. 278(25) pp 22199-22209 (2003)). Briefly, pellets are brought up in homogenization buffer (15 mM Tris-HCl, pH 8.0; 0.25 M sucrose; 0.1 mM EDTA; 1 mM glutathione) and sonicated 5×30 seconds on ice. Homogenate is centrifuged at 5,000×g for 10 minutes at 4° C. The supernatant fraction is decanted and loaded into Beckman Quick-Seal® tubes and centrifuged at 150,000×g. for 90 minutes at 4° C. The supernatant fraction is discarded by decantation and the pellets are re-suspended in assay buffer (10 mM sodium phosphate, pH 7.0; 10% glycerol; 2.5 mM glutathione; Complete Protease Inhibitor Cocktail (Roche)). Protein concentration is determined using the Pierce Coomassie Plus™ reagent.
For the enzyme assay, the microsomes are diluted into assay buffer and 14 μL/well of the resulting solution is added to 384 well assay plates. […]

Assay [2] has as its system PGE2 formation in human epithelial lung carcinoma cell line A549. The assay is described as follows: Cell Based Assay for Measuring Eicosanoid Selectivity (rhIL-1β induced PGE2 in A549 cells). The following applies: 0.1 ng/mL rhIL-1β, approximately 18 hours, EIA, ±0.00301, n=2, read-out: IC50 for inhibition of PGE2 formation. The procedure: Cell Based Assay for Measuring Eicosanoid Selectivity
Human epithelial lung carcinoma cell line A549 is obtained from ATCC (CCL-185) and maintained in Kaighn's F12 cell culture medium+10% fetal bovine serum (FBS) (plating medium) under standard 5% CO2 humidified atmosphere at 37° C. The cells are passaged at 1:3 twice per week.
For the assays, cells are released from flasks by washing once with PBS, then once with Trypsin/EDTA. After 3-5 minutes at 37° C., the cells are suspended in plating medium and centrifuged at 2,000 rpm, 25° C., for 5 minutes. The supernatant is aspirated and the cell pellet is resuspended in F12K plating medium. The cell number is determined by counting an aliquot of cells which has been diluted in PBS and Trypan blue on a hemocytometer. Cells are plated at 40,000/well in 96 well Falcon plates 24 hours prior to treatment. Compounds are diluted in DMSO to 100× of the final concentration in Screen Mates tubes. The medium is removed from the cells and fresh medium (90 μL/well) is added to the cells. The compounds are added at 1 μL/well, n=2, to give seven concentrations each. Cells are pretreated with compounds for 30 minutes at 37° C., 5% CO2. […] After approximately 90-120 minutes at room temperature on an orbital shaker at 100 rpm, the plates are read at A412 on a plate reader. […]

One may read the IC50 as the concentration needed to halve the response being measured. Turning to `Cc1cccc2ccc(N3CC[C@H](C(=O)N[C@H]4CCO[C@H](CO)C4)C(C)(C)C3)nc12` [Example 1, (S)-N-((2S,4S)-2-(Hydroxymethyl)tetrahydro-2H-pyran-4-yl)-3,3-dimethyl-1-(8-methylquinolin-2-yl)piperidine-4-carboxamide], the values for the IC50 (in assay [1]; against Human mPGES-1; in assay [2]) were 2.05 ± 0.82 nM, 1.93 nM and 4.71 nM, respectively.
